Source: patent US7138241B2, “Hybridoma, an antibody resistant to an interfering substance, and a kit for immunological analysis” (Japan Envirochemicals, Ltd., priority 2001, dated 2006)

system: EE2-227 antibody; assay: Cross-reactivity test with the EE2-ELISA kit; assay type: binding, mouse; settings: from IC50 (50% degree of inhibition) of each estrogen's standard curve relative to EE2
Experimental: 100 μL/well of a quantification sample or the “EE2 standard solution” (both are 10% methanol solutions) and 100 μL/well of the “antigen-enzyme conjugate solution” were mixed on a “mixing microplate”.
The “mixed solution” prepared in (3) was pipetted into the “anti-EE2 monoclonal antibody-immobilized plate” in a volume of 100 μl/well and reacted at room temperature for 60 minutes.
The “coloration reagent” prepared in (7) was added in the volume of 100 μL/well, the mixture was reacted at room temperature for 30 minutes, and the “coloration-stop solution” was added in a volume of 100 μL/well to stop the reaction.
The absorbance was measured at a wavelength of 450 nm with a plate reader, and the concentration of EE2 in the sample was determined from a standard curve.
The EE2 concentration was plotted on the ordinate [sic], and the ratio of the absorbance at each EE2 concentration to the absorbance at the concentration of 0 μg/L EE2 (degree of inhibition, B/BO %) was plotted on the abscissa [sic].
For the estrogens shown in [Table 2], the respective standard curves were prepared in the same manner as in Example 4, and the EE2 concentration (IC50) at which the degree of inhibition was 50% was determined and the cross-reactivity was determined from the following equation, and the results are shown in [Table 2]. Cross-reactivity (%)=[…]

Structure (SMILES)	Cross-reactivity (%) of EE2-227 antibody [%]
COc1cc2c(cc1O)CC[C@@H]1[C@@H]2CC[C@]2(C)C(=O)CC[C@@H]12 [2-Methoxy E1]	<0.2
C[C@]12CC[C@@H]3c4ccc(O)cc4CC[C@H]3[C@@H]1C[C@H](O)[C@@H]2O [16-Epi-E3]	<0.2
C[C@]12CC[C@@H]3c4ccc(O)cc4CC[C@H]3[C@@H]1CC[C@@H]2O [17β-Estradiol (E2), 17β-Estradiol]	<0.2
C[C@]12CC[C@@H]3c4ccc(O[C@@H]5O[C@H](C(=O)O)[C@@H](O)[C@H](O)[C@H]5O)cc4CC[C@H]3[C@@H]1CC[C@@H]2O [E2-3-glucuronide]	<0.2
C[C@]12CC[C@@H]3c4ccc(OS(=O)(=O)O)cc4CC[C@H]3[C@@H]1CC[C@@H]2O[C@@H]1O[C@H](C(=O)O)[C@@H](O)[C@H](O)[C@H]1O [E2-3-sulfate-17-glucuronide]	<0.2
C[C@]12CC[C@@H]3c4ccc(O)cc4CC[C@H]3[C@@H]1CC[C@@H]2O[C@@H]1O[C@H](C(=O)O)[C@@H](O)[C@H](O)[C@H]1O [E2-17-glucuronide]	<0.2
C[C@]12CC[C@@H]3c4ccc(O)cc4CC[C@H]3[C@@H]1C[C@@H](O[C@@H]1O[C@H](C(=O)O)[C@@H](O)[C@H](O)[C@H]1O)[C@@H]2O [E3-16-glucuronide]	<0.2
C[C@]12CC[C@@H]3c4ccc(O)cc4CC[C@H]3[C@@H]1C[C@@H](O)[C@@H]2O [Estriol (E3), Estriol]	<0.2
C#C[C@]1(O)CC[C@H]2[C@@H]3CCc4cc(O)ccc4[C@H]3CC[C@@]21C [Ethynylestradiol (EE2), Ethynylestradiol]	100.0
